A value given as a limit tells only on which side of the number the result lay.

The source of these data is the supplement of paper PMC9103864.

Test [1] concerns BMSC (primary human bone marrow mesenchymal stromal cells). Kind of test: absolute EC50 for viability; higher = less sensitive.
The test system is the same in test [2]. The test can be described thus: drug sensitivity score (DSS); higher = more sensitive.

Turning to `CC1(C)OCCn2c1nc1c(N3CCOCC3)nc(-c3cnc(N)nc3)nc12` [GDC-0084], the “absolute EC50 for viability” value in test [1] is 0.643 µM. The same molecule had a drug sensitivity score in test [2] of 13.2.

In the case of `C[C@H]1C[C@@H](n2c(Nc3ccc(OC(F)(F)F)cc3)nc3cc(CCC(=O)O)ccc32)CC(C)(C)C1`, the “absolute EC50 for viability” value in test [1] is above 10 µM. Moreover, the drug sensitivity score in test [2] was found to be 0.

Turning to `Cc1ncc(-c2ccnc(Nc3ccc(S(C)(=O)=O)cc3)n2)n1C(C)C` [AZD-5438], in test [1], the “absolute EC50 for viability” value was above 10 µM. Also, the drug sensitivity score in test [2] was 1.5.

On to `Cn1nnc2c(C(N)=O)ncn2c1=O` [Temozolomide], for which the “absolute EC50 for viability” value in test [1] was above 100 µM. In addition, in test [2], the drug sensitivity score is 0.

Take `O[C@H]1CC[C@H](Nc2ncc3nc(Nc4c(F)cc(F)cc4F)n([C@H]4CCOC4)c3n2)CC1` [Tanzisertib]: the “absolute EC50 for viability” value in test [1] is above 10 µM. In test [2], the drug sensitivity score amounted to 0.3.

With `Nc1ncnc2c1c(COc1cccc(Cl)c1)nn2C1CCOCC1`, the “absolute EC50 for viability” value in test [1] is above 10 µM. Also, the drug sensitivity score in test [2] came out at 0.

For the molecule `CCCOc1ccn2c(C(C)=O)cc(-c3ccccc3S(C)(=O)=O)c2c1` [GSK2801], in test [1], the “absolute EC50 for viability” value is above 10 µM. Besides, the drug sensitivity score in test [2] is 0.

Consider `COc1cc2c(Nc3ccc(Cl)c(Cl)c3F)ncnc2cc1OC[C@@H]1C[C@@H]2CN(C)C[C@@H]2C1` [Tesevatinib], for which the “absolute EC50 for viability” value in test [1] is above 1 µM. This molecule also yielded a drug sensitivity score in test [2] of 4.1.

Regarding `Cn1cc(-c2cnn3c(N)c(Br)c([C@@H]4CCCNC4)nc23)cn1` [MK-8776], the “absolute EC50 for viability” value in test [1] was above 2.5 µM. This molecule also gave a drug sensitivity score in test [2] of 1.

As to `CC(C)C[C@H](NC(=O)[C@H](CCc1ccccc1)NC(=O)CN1CCOCC1)C(=O)N[C@@H](Cc1ccccc1)C(=O)N[C@@H](CC(C)C)C(=O)[C@@]1(C)CO1` [Carfilzomib], in test [1], the “absolute EC50 for viability” value amounted to 0.0187 µM. This molecule showed a drug sensitivity score in test [2] of 19.7.

As for `O=C(Nc1cc(Cl)cc2c1[nH]c1cnccc12)c1cccnc1` [PS-1145], the “absolute EC50 for viability” value in test [1] was above 25 µM. Also, the drug sensitivity score in test [2] stood at 0.

With `Nc1nccc(-c2c(-c3ccc(F)cc3)ncn2C2CCCCC2)n1`, the “absolute EC50 for viability” value in test [1] is above 10 µM. The same molecule registered a drug sensitivity score in test [2] of 0.3.

In the case of `NS(=O)(=O)OC[C@@H]1C[C@@H](n2ccc3c(N[C@H]4CCc5ccccc54)ncnc32)C[C@@H]1O` [Pevonedistat], the “absolute EC50 for viability” value in test [1] is above 10 µM. In test [2], this molecule returned a drug sensitivity score of 5.4.

As for `CO[C@H]1C[C@@H]2CC[C@@H](C)[C@@](O)(O2)C(=O)C(=O)N2CCCC[C@H]2C(=O)O[C@H]([C@H](C)C[C@@H]2CC[C@@H](OP(C)(C)=O)[C@H](OC)C2)CC(=O)[C@H](C)/C=C(\C)[C@@H](O)[C@@H](OC)C(=O)[C@H](C)C[C@H](C)/C=C/C=C/C=C/1C` [Ridaforolimus], the “absolute EC50 for viability” value in test [1] is above 0.1 µM. The same molecule had a drug sensitivity score in test [2] of 7.6.

In the case of `Nc1nc(Cl)nc2c1ncn2[C@H]1C[C@H](O)[C@@H](CO)O1` [Cladribine], in test [1], the “absolute EC50 for viability” value was above 1 µM. Further, the drug sensitivity score in test [2] amounted to 2.3.

Consider `Cn1cc(C2=Nc3cc(NC(=O)C(N)C4CCCCC4)cc4c3C2=CNNC4=O)cn1` (stereo not given), for which the “absolute EC50 for viability” value in test [1] amounted to 1.43 µM. Also, the drug sensitivity score in test [2] was 9.2.

`Cc1nc(=O)c2cc(CN(C)c3ccc(C(=O)N[C@@H](CCC(=O)O)C(=O)O)s3)ccc2[nH]1` [Raltitrexed]: the “absolute EC50 for viability” value in test [1] is above 1 µM. This molecule registered a drug sensitivity score in test [2] of 0.

For `COC[C@H](NC(=O)c1cnc(C)s1)C(=O)N[C@@H](COC)C(=O)N[C@@H](Cc1ccccc1)C(=O)[C@@]1(C)CO1` [Oprozomib], the “absolute EC50 for viability” value in test [1] was 0.304 µM. In test [2], this molecule displayed a drug sensitivity score of 10.

Regarding `CCNC(=O)c1noc(-c2cc(C(C)C)c(O)cc2O)c1-c1ccc(CN2CCOCC2)cc1` [Luminespib], in test [1], the “absolute EC50 for viability” value amounted to 0.0152 µM. In test [2], this molecule returned a drug sensitivity score of 16.8.

In the case of `CO[C@@H](C)Cn1c(=O)n(C)c2cnc3ccc(-c4cncc(C(C)(C)O)c4)cc3c21`, the “absolute EC50 for viability” value in test [1] was 0.257 µM. In test [2], the drug sensitivity score amounted to 10.5.

In the case of `FC(F)c1nc2ccccc2n1-c1nc(N2CCOCC2)nc(N2CCOCC2)n1` [ZSTK474], the “absolute EC50 for viability” value in test [1] is above 10 µM. For the same molecule, the drug sensitivity score in test [2] worked out at 7.2.

For the molecule `COc1cccc(-c2ccc(NC(=O)C3=C(C(=O)O)CCC3)c(F)c2)c1` [Vidofludimus], the “absolute EC50 for viability” value in test [1] was above 10 µM. In test [2], this molecule had a drug sensitivity score of 0.

On to `CN(Cc1cnc2nc(N)nc(N)c2n1)c1ccc(C(=O)N[C@@H](CCC(=O)O)C(=O)O)cc1` [Methotrexate], for which the “absolute EC50 for viability” value in test [1] is above 5 µM. This molecule also returned a drug sensitivity score in test [2] of 4.7.

On to `C[C@@H]1CN(CC(=O)Nc2ccc3c(c2)Cc2cccc(-c4cc(=O)cc(N5CCOCC5)o4)c2S3)C[C@H](C)O1`, for which the “absolute EC50 for viability” value in test [1] was above 25 µM. The drug sensitivity score in test [2] amounted to 0.6.

As for `N#Cc1ccc(COC[C@H]2O[C@@H](n3c(NCc4ccc(Cl)c(Cl)c4)nc4c(N)ncnc43)[C@H](O)[C@@H]2O)cc1`, the “absolute EC50 for viability” value in test [1] is above 10 µM. In test [2], this molecule displayed a drug sensitivity score of 2.2.

For `CCC1(c2ccc(N)cc2)CCC(=O)NC1=O` (stereo not given) [Aminoglutethimide], the “absolute EC50 for viability” value in test [1] is above 10 µM. Further, the drug sensitivity score in test [2] was 0.

Regarding `COc1cc(Nc2c(C#N)cnc3cc(OCCCN4CCN(C)CC4)c(OC)cc23)c(Cl)cc1Cl` [Bosutinib], in test [1], the “absolute EC50 for viability” value is 1.69 µM. Further, in test [2], the drug sensitivity score turned out to be 8.8.

On to `Cc1ccc(C(=O)N(CCCN)[C@@H](c2oc3cc(Cl)ccc3c(=O)c2Cc2ccccc2)C(C)C)cc1`, for which, in test [1], the “absolute EC50 for viability” value is above 0.1 µM. The drug sensitivity score in test [2] was 0.

Take `COCC[n+]1c2c(n(Cc3cnccn3)c1C)C(=O)c1ccccc1C2=O` [Sepantronium bromide]: the “absolute EC50 for viability” value in test [1] was 0.0705 µM. This molecule also had a drug sensitivity score in test [2] of 25.4.

For the molecule `CC1(C)CNc2cc(NC(=O)c3cccnc3NCc3ccncc3)ccc21` [Motesanib], the “absolute EC50 for viability” value in test [1] was above 10 µM. Further, the drug sensitivity score in test [2] worked out at 0.

Take `COc1cc2c(Oc3ccc(NC(=O)C4(C(=O)Nc5ccc(F)cc5)CC4)cc3F)ccnc2cc1OCCCN1CCOCC1` [Foretinib]: the “absolute EC50 for viability” value in test [1] stood at 0.46 µM. This molecule also displayed a drug sensitivity score in test [2] of 6.

Take `Clc1ccc(C(c2ccccc2Cl)C(Cl)Cl)cc1` (stereo not given) [Mitotane]: in test [1], the “absolute EC50 for viability” value was above 10 µM. In test [2], the drug sensitivity score was 0.

Regarding `CCOc1ccn(-c2ccc(F)cc2)c(=O)c1C(=O)Nc1ccc(Oc2ccnc(N)c2Cl)c(F)c1`, the “absolute EC50 for viability” value in test [1] is above 2.5 µM. The molecule further yielded a drug sensitivity score in test [2] of 0.

Regarding `Cc1c2oc3c(C)ccc(C(=O)N[C@@H]4C(=O)N[C@H](C(C)C)C(=O)N5CCC[C@H]5C(=O)N(C)CC(=O)N(C)[C@@H](C(C)C)C(=O)O[C@@H]4C)c3nc-2c(C(=O)N[C@@H]2C(=O)N[C@H](C(C)C)C(=O)N3CCC[C@H]3C(=O)N(C)CC(=O)N(C)[C@@H](C(C)C)C(=O)O[C@@H]2C)c(N)c1=O` [Dactinomycin], the “absolute EC50 for viability” value in test [1] came out at 0.0507 µM. In test [2], this molecule returned a drug sensitivity score of 19.

Consider `CC[C@@H]1CN(C(=O)NCC(F)(F)F)C[C@@H]1c1cnc2cnc3[nH]ccc3n12` [Upadacitinib], for which the “absolute EC50 for viability” value in test [1] is above 10 µM. Also, the drug sensitivity score in test [2] is 1.1.

As to `C[C@H]1CNCCCN1S(=O)(=O)c1cccc2cncc(F)c12` [Ripasudil], the “absolute EC50 for viability” value in test [1] is above 10 µM. Also, the drug sensitivity score in test [2] is 1.1.

On to `CCOc1ccccc1-n1c(C(C)N2CCN(C(=O)COc3ccc(Cl)cc3)CC2)nc2ccccc2c1=O` (stereo not given) [Erastin], for which, in test [1], the “absolute EC50 for viability” value is above 10 µM. The drug sensitivity score in test [2] worked out at 2.1.

Regarding `O=C(Nc1ccncc1)C(=O)c1cn(Cc2ccc(Cl)cc2)c2ccccc12` [Indibulin], the “absolute EC50 for viability” value in test [1] is above 10 µM. In addition, in test [2], the drug sensitivity score was found to be 0.

`CN1C(=O)N[C@H](Cc2c[nH]c3c(Cl)cccc23)C1=O` [Necrostatin 2]: the “absolute EC50 for viability” value in test [1] was above 10 µM. In test [2], this molecule yielded a drug sensitivity score of 0.

As for `Nc1nc(Cl)nc2c1ncn2[C@@H]1O[C@H](CO)[C@@H](O)[C@@H]1F` [Clofarabine], the “absolute EC50 for viability” value in test [1] was 0.739 µM. The molecule further gave a drug sensitivity score in test [2] of 11.4.

Consider `C#Cc1cccc(Nc2ncnc3cc4c(cc23)OCCOCCOCCO4)c1` [Icotinib], for which the “absolute EC50 for viability” value in test [1] was above 10 µM. Besides, the drug sensitivity score in test [2] was 2.1.

On to `CC1CCC(n2c3cnccc3c3cnc(Nc4ccc5c(n4)CCN(C(=O)CO)C5)nc32)CC1` (stereo not given) [AMG-925], for which, in test [1], the “absolute EC50 for viability” value is above 1 µM. Moreover, in test [2], the drug sensitivity score stood at 0.

On to `Nc1ncnc2c1c(-c1cccc(OCc3ccccc3)c1)cn2C1CC(CN2CCC2)C1` (stereo not given) [NVP-AEW541], for which the “absolute EC50 for viability” value in test [1] stood at 6.04 µM. Besides, in test [2], the drug sensitivity score was 4.5.

`C[C@@H](Oc1cc(-c2cnn(C3CCNCC3)c2)cnc1N)c1c(Cl)ccc(F)c1Cl` [Crizotinib]: the “absolute EC50 for viability” value in test [1] is above 1 µM. Further, the drug sensitivity score in test [2] came out at 0.2.

Turning to `CCS(=O)(=O)c1cccc(-c2cc(C(=O)NC3CCN(C)CC3)c(C)c3[nH]c4ncc(C)cc4c23)c1` [TAK-901], in test [1], the “absolute EC50 for viability” value is 0.265 µM. In test [2], this molecule came in with a drug sensitivity score of 5.9.

For `CN(C)C/C=C/C(=O)Nc1cccc(C(=O)Nc2cccc(Nc3ncc(Cl)c(-c4c[nH]c5ccccc45)n3)c2)c1` [THZ2], the “absolute EC50 for viability” value in test [1] is 2.71 µM. Moreover, the drug sensitivity score in test [2] turned out to be 11.1.

In the case of `Cc1nc(Nc2n[nH]c3c2CN(C(=O)N[C@H](CN(C)C)c2ccccc2)C3(C)C)c2sccc2n1`, in test [1], the “absolute EC50 for viability” value worked out at 2.86 µM. In addition, the drug sensitivity score in test [2] came to 7.4.

Regarding `CC[C@@]1(O)C(=O)OCc2c1cc1n(c2=O)Cc2cc3c(CN(C)C)c(O)ccc3nc2-1` [Topotecan], the “absolute EC50 for viability” value in test [1] is above 10 µM. The molecule also gave a drug sensitivity score in test [2] of 4.4.

Regarding `CN(C)c1cc2c(cc1Sc1nc3c(N)nccc3n1CCNCC(C)(C)C)OCO2` [CUDC-305], in test [1], the “absolute EC50 for viability” value worked out at 1.15 µM. In test [2], the drug sensitivity score worked out at 8.8.

Turning to `C=CC(=O)N1CC/C(=C\c2ccc(F)c([N+](=O)[O-])c2)C(=O)/C(=C/c2ccc(F)c([N+](=O)[O-])c2)C1` [VLX1570], the “absolute EC50 for viability” value in test [1] was 1.4 µM. Also, the drug sensitivity score in test [2] was 9.6.
